Assay results as given in PubChem BioAssay (NCI).
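The compound was tested at five concentrations on cells cultured in 96-well plates, with a 48-hour exposure period. GI50 is the concentration that inhibits growth by half. Definition used: TGI = concentration required for complete inhibition of growth.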

How the values were obtained:
Assay in all cases: growth of human tumour cells (NCI), 48 h
SNB-75 CNS = test system: SNB-75 CNS
M14 melanoma = test system: M14 melanoma
BT-549 breast = test system: BT-549 breast
MALME-3M melanoma = test system: MALME-3M melanoma
DU-145 prostate = test system: DU-145 prostate
NCI-H23 lung = test system: NCI-H23 lung
SN12C renal = test system: SN12C renal
HOP-92 NSCLC = test system: HOP-92 NSCLC
SK-MEL-2 melanoma = test system: SK-MEL-2 melanoma
LOX IMVI melanoma = test system: LOX IMVI melanoma

| Compound | TGI (SNB-75 CNS) [µM] | TGI (M14 melanoma) [µM] | TGI (BT-549 breast) [µM] | TGI (MALME-3M melanoma) [µM] | TGI (DU-145 prostate) [µM] | TGI (NCI-H23 lung) [µM] | TGI (SN12C renal) [µM] | TGI (HOP-92 NSCLC) [µM] | GI50 (SK-MEL-2 melanoma) [µM] | TGI (SK-MEL-2 melanoma) [µM] | GI50 (SNB-75 CNS) [µM] | GI50 (M14 melanoma) [µM] | GI50 (BT-549 breast) [µM] | GI50 (MALME-3M melanoma) [µM] | GI50 (DU-145 prostate) [µM] | GI50 (SN12C renal) [µM] | GI50 (HOP-92 NSCLC) [µM] | TGI (LOX IMVI melanoma) [µM] | GI50 (LOX IMVI melanoma) [µM] | GI50 (NCI-H23 lung) [µM] |
| --- | --- | --- | --- | --- | --- | --- | --- | --- | --- | --- | --- | --- | --- | --- | --- | --- | --- | --- | --- | --- |
| CC(=O)OC1CC2C(=O)C(=O)C1(C)C2(C)C (stereo unspecified) | > 100 | > 100 | > 100 | > 100 | > 100 | > 100 | > 100 | > 100 |  |  |  |  |  |  |  |  |  |  |  |  |
| CSC1=NCC2(S1)c1ccccc1N(C(=O)OC(C)(C)C)C2N1CCCCC1 (stereo unspecified) | 88.4 | > 100 | > 100 | > 100 | > 100 |  | > 100 | > 100 | > 100 | > 100 | 31.7 | > 100 | > 100 | 15.3 | > 100 | > 100 | 51.5 |  |  |  |
| CCSC(SCC)=C1C(=O)N(c2ccccc2)N=C1C | 43.9 | 29.7 |  | 28.3 |  | 34.9 | 30 | 20.1 |  | 33 |  |  |  |  |  |  |  | 26.4 |  |  |
| CN1CCN(c2nc(-c3ccncc3)nc3sc4c(c23)CCCCCC4)CC1 | 7.75 | 18 | 19.9 |  | 26.4 | 24.3 | 22 | 5.32 | 14.6 | 28.2 | 1.4 | 5.32 | 6.35 |  | 12.7 | 5.64 | 0.654 | 20.5 | 8.23 | 11.4 |
| C[N+](C)(C)CC1CCCC(C[N+](C)(C)C)C1O (stereo unspecified) | > 100 | > 100 |  | > 100 |  | > 100 | > 100 | > 100 |  | > 100 |  |  |  |  |  |  |  | > 100 |  |  |
| CCCCCCCCCCCCOP(N)(=O)OCCCCCCCCCCCC | > 100 | > 100 |  | > 100 |  | > 100 | > 100 |  |  |  |  |  |  |  |  |  |  | > 100 |  |  |
| COc1cccc(NC(=O)C(=O)C(C(C)=O)c2nc3ccc(Cl)cc3[nH]c2=O)c1 (stereo unspecified) | > 100 | > 100 |  | > 100 |  | > 100 | > 100 | > 100 |  | > 100 |  |  |  |  |  |  |  | > 100 |  |  |
| CNC(=O)CN(CC(N)=O)C(N)=O | > 100 | > 100 |  | > 100 |  | > 100 |  | > 100 |  | > 100 |  |  |  |  |  |  |  | > 100 |  |  |
| Cc1c(C(=O)CSc2nc3ccccc3[nH]2)c(=O)n(-c2ccccc2)n1C | > 100 | > 100 |  | > 100 |  | > 100 | > 100 | > 100 |  | > 100 |  |  |  |  |  |  |  | > 100 |  |  |
| CSc1ccc(C(=O)C(=O)c2ccc(SC)s2)s1 | > 10 | > 10 |  |  | > 10 | > 10 | > 10 | > 10 |  | > 10 |  |  |  |  |  |  |  | > 10 |  |  |
| CC(C)C(=O)Oc1cc2c(=O)oc3c(OC(=O)C(C)C)c(OC(=O)C(C)C)cc4c(=O)oc(c1OC(=O)C(C)C)c2c34 | > 100 | > 100 | > 100 | > 100 | > 100 | > 100 | > 100 | > 100 |  |  |  |  |  |  |  |  |  | > 100 |  |  |
| CCN(CC)CCN(C(=O)C(C)(C)C)c1ccccc1N | > 100 | > 100 | > 100 | > 100 | > 100 | > 100 | > 100 | > 100 |  |  |  |  |  |  |  |  |  |  |  |  |
| CC1(C)CC[C@]2(C(N)=O)CC[C@]3(C)C(=CC[C@@H]4[C@@]5(C)C/C(=C/c6ccncc6)C(=O)C(C)(C)[C@@H]5CC[C@]43C)[C@@H]2C1 | 8.22 | 4.62 |  | 3.27 | 7.85 | 9.62 | 3.67 | 4.77 | 1.92 | 3.97 | 2.48 | 2.05 |  | 1.71 | 2.91 | 1.82 | 1.76 |  |  | 2.89 |
| CCCCCCCCCCCCCc1nn[nH]n1 | 36 | 31.5 |  | 33.5 |  | 44.6 | 35.9 | 29.3 |  | 33.1 |  |  |  |  |  |  |  | 35.4 |  |  |
| CCOc1ccc(C(CN2CCOCC2)C(C)=O)cc1OC (stereo unspecified) | 32.6 | 33.7 |  | 37.5 |  | 32.9 | 31.2 | 35.7 |  | 28.4 |  |  |  |  |  |  |  | 31.1 |  |  |
| COc1nc(NC2OC(COC(C)=O)C(OC(C)=O)C(OC(C)=O)C2OC(C)=O)c(-c2csc(N)n2)c(=O)n1C (stereo unspecified) | 51.8 | > 100 |  | 78.8 |  | > 100 | > 100 | > 100 |  | 90.2 |  |  |  |  |  |  |  | > 100 |  |  |
| COC(=O)/C(=N\NC(N)=S)C(C#N)c1ccccc1 (stereo unspecified) | > 100 | > 100 |  | > 100 |  | > 100 | > 100 | > 100 |  | > 100 |  |  |  |  |  |  |  | > 100 |  |  |
| Cc1ccc(NC(=O)CC(=O)N2N=C(N(CCC#N)c3cccc(C)c3)CC2c2ccccc2)cc1 (stereo unspecified) | > 100 | > 100 |  | > 100 |  | > 100 | > 100 | > 100 |  | > 100 |  |  |  |  |  |  |  |  |  |  |
| CCC1CNC(=O)CC1CC(=O)OC (stereo unspecified) | > 100 | > 100 |  | > 100 |  | > 100 | > 100 | > 100 |  | > 100 |  |  |  |  |  |  |  | > 100 |  |  |
| COc1ccccc1NC(=O)C(CC(C(=O)Nc1ccccc1OC)/C(C)=N/Nc1ccc([N+](=O)[O-])cc1[N+](=O)[O-])/C(C)=N/Nc1ccc([N+](=O)[O-])cc1[N+](=O)[O-] (stereo unspecified) | > 100 | > 100 |  | > 100 |  | > 100 | > 100 | > 100 |  | > 100 |  |  |  |  |  |  |  | > 100 |  |  |
| O=C(Cc1csc2nc(-c3ccc(Br)cc3)cn12)N/N=C/c1ccc(O)cc1 | > 100 | 23.7 | 56.5 |  | 87.4 | 32.2 | 44.1 | 68.9 | 26.1 | 95.9 | > 100 | 10.2 | 13.4 |  | 22.4 | 15.4 | 18.9 | 26.1 | 11.1 | 7.5 |
